In patent US9796686B2, “Antibacterial quinazoline-4(3H)-one derivatives” (priority 2014, dated 2017):
In brackets after ≈: the same amount, converted by molar mass. Structures can show the parent of a compound that is named as a salt. Where two headings read alike, the source gives them in different places.

Columns and labels:
Experiment in all cases: Bacterial growth minimal inhibitory concentration, microdilution in cation-adjusted Mueller-Hinton Broth (CLSI M7-A7)
Type in all cases: cell-based
P. aeruginosa ATCC27853 = details: for MIC: Pseudomonas aeruginosa
Protocol: (§1) Minimal Inhibitory Concentrations (MICs; mg/L) were determined in cation-adjusted Mueller-Hinton Broth by a microdilution method following the description given in “Methods for Dilution Antimicrobial Susceptibility Tests for Bacteria that Grow Aerobically”, Approved standard, 7th ed., Clinical and Laboratory Standards Institute (CLSI) Document M7-A7, Wayne, Pa., U.S.A. (2006).
(§2) All Example compounds were tested against several Gram-positive and Gram-negative bacteria. […] K. pneumoniae A-651 is a multiply-resistant strain (in particular quinolone-resistant), while E. coli ATCC25922 and P. aeruginosa ATCC27853 are quinolone-sensitive strains.

E. coli ATCC25922 = details: for MIC: Escherichia coli
Protocol: as §1, §2

K. pneumoniae A-651 = details: for MIC: Klebsiella pneumoniae
Protocol: as §1, §2

[1] = ATCC27853, quinolone-sensitive strain, read-out: MIC for P. aeruginosa ATCC27853
[2] = ATCC25922, quinolone-sensitive strain, read-out: MIC for E. coli ATCC25922
[3] = A651, multiply-resistant strain (in particular quinolone-resistant), read-out: MIC for K. Pneumoniae A-651

MIC (P. aeruginosa ATCC27853; [1])	MIC (E. coli ATCC25922; [2])	MIC (K. pneumoniae A-651; [3])	Compound	other results
16 µg/mL	2 µg/mL	4 µg/mL	CC(CCn1cnc2cc(-c3ccc(OCCN4CCOCC4)cc3F)ccc2c1=O)(C(=O)NO)S(C)(=O)=O.O=CO (racemic) [RE3, (RS)-4-(7-(2-fluoro-4-(2-morpholinoethoxy)phenyl)-4-oxoquinazolin-3(4H)-yl)-N-hydroxy-2-methyl-2-(methylsulfonyl)butanamide formate]	–
8 µg/mL	1 µg/mL	4 µg/mL	C[C@@](CCn1cnc2cc(C#CC#CC3CCC(NC(=O)CN)C3)c(F)cc2c1=O)(C(=O)NO)S(C)(=O)=O.Cl (stereo partly drawn) [Example 27, (R)-4-(7-((3-(2-aminoacetamido)cyclopentyl)buta-1,3-diyn-1-yl)-6-fluoro-4-oxoquinazolin-3(4H)-yl)-N-hydroxy-2-methyl-2-(methylsulfonyl)butanamide hydrochloride]	–
4 µg/mL (≈ 8.94 µM)	8 µg/mL (≈ 17.9 µM)	8 µg/mL (≈ 17.9 µM)	C[C@@](CCn1cnc2cc(C#CC#C[C@@H](O)CO)ccc2c1=O)(C(=O)NO)S(C)(=O)=O [Example 10, (R)-4-(7-((R)-5,6-dihydroxyhexa-1,3-diyn-1-yl)-4-oxoquinazolin-3(4H)-yl)-N-hydroxy-2-methyl-2-(methylsulfonyl)butanamide]	–
8 µg/mL	8 µg/mL	8 µg/mL	C[C@@](CCn1cnc2cc(C#CC#C[C@@H]3C[C@H]3CN)c(F)cc2c1=O)(C(=O)NO)S(C)(=O)=O.Cl [Example 28, (R)-4-(7-(((1R,2R)-2-(aminomethyl)cyclopropyl)buta-1,3-diyn-1-yl)-6-fluoro-4-oxoquinazolin-3(4H)-yl)-N-hydroxy-2-methyl-2-(methylsulfonyl)butanamide hydrochloride]	–
8 µg/mL (≈ 15.6 µM)	1 µg/mL (≈ 1.95 µM)	1 µg/mL (≈ 1.95 µM)	CC(CCn1cnc2cc(C#Cc3ccc(C4(O)COC4)cc3)ccc2c1=O)(C(=O)NO)S(C)(=O)=O (racemic) [RE11, (RS)-N-hydroxy-4-(7-((4-(3-hydroxyoxetan-3-yl)phenyl)ethynyl)-4-oxoquinazolin-3(4H)-yl)-2-methyl-2-(methylsulfonyl)butanamide]	–
1 µg/mL (≈ 2.12 µM)	0.25 µg/mL (≈ 0.53 µM)	0.25 µg/mL (≈ 0.53 µM)	C[C@]1(CO)C[C@@H]1C#CC#Cc1ccc2c(=O)n(CC[C@](C)(C(=O)NO)S(C)(=O)=O)cnc2c1 [Example 24, (R)-N-hydroxy-4-(7-(((1R,2S)-2-(hydroxymethyl)-2-methylcyclopropyl)buta-1,3-diyn-1-yl)-4-oxoquinazolin-3(4H)-yl)-2-methyl-2-(methylsulfonyl)butanamide]	–
8 µg/mL	8 µg/mL	32 µg/mL	C[C@@](CCn1cnc2cc(C#CC#CC3(C(O)CO)CC3)ccc2c1=O)(C(=O)NO)S(C)(=O)=O (mixture of isomers) [Example 19, (2R)-4-(7-((1-((RS)-1,2-dihydroxyethyl)cyclopropyl)buta-1,3-diyn-1-yl)-4-oxoquinazolin-3(4H)-yl)-N-hydroxy-2-methyl-2-(methylsulfonyl)butanamide]	–
0.5 µg/mL (≈ 1.06 µM)	≤ 0.063 µg/mL	0.125 µg/mL (≈ 0.265 µM)	C[C@@]1(CO)C[C@H]1C#CC#Cc1ccc2c(=O)n(CC[C@](C)(C(=O)NO)S(C)(=O)=O)cnc2c1 [Example 17, (R)-N-hydroxy-4-(7-(((1S,2R)-2-(hydroxymethyl)-2-methylcyclopropyl)buta-1,3-diyn-1-yl)-4-oxoquinazolin-3(4H)-yl)-2-methyl-2-(methylsulfonyl)butanamide]	–
16 µg/mL (≈ 36.9 µM)	0.25 µg/mL (≈ 0.577 µM)	≤ 0.063 µg/mL	CC(CCn1cnc2cc(-c3ccccc3)c(F)cc2c1=O)(C(=O)NO)S(C)(=O)=O (racemic) [RE9, (RS)-4-(6-fluoro-4-oxo-7-phenylquinazolin-3(4H)-yl)-N-hydroxy-2-methyl-2-(methylsulfonyl)butanamide]	–
2 µg/mL	0.25 µg/mL	0.5 µg/mL	CN(C)CC#CC#Cc1cc2ncn(CC[C@](C)(C(=O)NO)S(C)(=O)=O)c(=O)c2cc1F.O=CO [Example 32, (R)-4-(7-(5-(dimethylamino)penta-1,3-diyn-1-yl)-6-fluoro-4-oxoquinazolin-3(4H)-yl)-N-hydroxy-2-methyl-2-(methylsulfonyl)butanamide formate]	–
16 µg/mL (≈ 34.9 µM)	0.125 µg/mL (≈ 0.273 µM)	0.125 µg/mL (≈ 0.273 µM)	CN(C)c1ccc(-c2ccc3c(=O)n(CCC(C)(C(=O)NO)S(C)(=O)=O)cnc3c2)cc1 (racemic) [RE6, (RS)-4-(7-(4-(dimethylamino)phenyl)-4-oxoquinazolin-3(4H)-yl)-N-hydroxy-2-methyl-2-(methylsulfonyl)butanamide]	–
2 µg/mL (≈ 4.21 µM)	0.25 µg/mL (≈ 0.526 µM)	0.5 µg/mL (≈ 1.05 µM)	C[C@@](CCn1cnc2cc(C#CC#CC3(CO)CC3)c(F)cc2c1=O)(C(=O)NO)S(C)(=O)=O [Example 12, (R)-4-(6-fluoro-7-((1-(hydroxymethyl)cyclopropyl)buta-1,3-diyn-1-yl)-4-oxoquinazolin-3(4H)-yl)-N-hydroxy-2-methyl-2-(methylsulfonyl)butanamide]	–
16 µg/mL	1 µg/mL	2 µg/mL	CC(CCn1cnc2cc(-c3ccc(CN4CCOCC4)cc3)ccc2c1=O)(C(=O)NO)S(C)(=O)=O.O=CO (racemic) [RE8, (RS)-N-hydroxy-2-methyl-2-(methylsulfonyl)-4-(7-(4-(morpholinomethyl)phenyl)-4-oxoquinazolin-3(4H)-yl)butanamide formate]	–
4 µg/mL (≈ 8.41 µM)	0.25 µg/mL (≈ 0.526 µM)	0.5 µg/mL (≈ 1.05 µM)	C[C@@](CCn1cnc2c(F)c(C#CC#C[C@@H]3C[C@H]3CO)ccc2c1=O)(C(=O)NO)S(C)(=O)=O [Example 21, (R)-4-(8-fluoro-7-(((1R,2R)-2-(hydroxymethyl)cyclopropyl)buta-1,3-diyn-1-yl)-4-oxoquinazolin-3(4H)-yl)-N-hydroxy-2-methyl-2-(methylsulfonyl)butanamide]	–
16 µg/mL	1 µg/mL	2 µg/mL	CC(CCn1cnc2cc(-c3ccc(OCCCN4CCOCC4)cc3F)ccc2c1=O)(C(=O)NO)S(C)(=O)=O.O=CO (racemic) [RE1, (RS)-4-(7-(2-fluoro-4-(3-morpholinopropoxy)phenyl)-4-oxoquinazolin-3(4H)-yl)-N-hydroxy-2-methyl-2-(methylsulfonyl)butanamide formate]	–
–	–	–	CN(C)CC(=O)OCC1(c2ccc(C#Cc3ccc4c(=O)n(CC[C@](C)(C(=O)NO)S(C)(=O)=O)cnc4c3)cc2)CC1.Cl [Example 22]	MIC for P. aeruginosa ATCC27853 (P. aeruginosa ATCC27853; quinolone-sensitive strain): 16 µg/mL; MIC for E. coli ATCC25922 (E. coli ATCC25922; quinolone-sensitive strain): 0.5 µg/mL; MIC for K. Pneumoniae A-651 (K. pneumoniae A-651; multiply-resistant strain (in particular quinolone-resistant)): 4 µg/mL
–	–	–	CC(C)(N)C#CC#Cc1ccc2c(=O)n(CC[C@](C)(C(=O)NO)S(C)(=O)=O)cnc2c1 [Example 7, (R)-4-(7-(5-amino-5-methylhexa-1,3-diyn-1-yl)-4-oxoquinazolin-3(4H)-yl)-N-hydroxy-2-methyl-2-(methylsulfonyl)butanamide formate]	MIC (P. aeruginosa ATCC27853; ATCC27853, read-out: MIC for P. aeruginosa ATCC27853): 2 µg/mL; MIC (E. coli ATCC25922; ATCC25922, read-out: MIC for E. coli ATCC25922): 1 µg/mL; MIC (K. pneumoniae A-651; A651, read-out: MIC for K. Pneumoniae A-651): 4 µg/mL
8 µg/mL	1 µg/mL	2 µg/mL	CC(CCn1cnc2cc(-c3ccc(OCCCN4CCOCC4)cc3)ccc2c1=O)(C(=O)NO)S(C)(=O)=O.O=CO (racemic) [RE2, (RS)-N-hydroxy-2-methyl-2-(methylsulfonyl)-4-(7-(4-(3-morpholinopropoxy)phenyl)-4-oxoquinazolin-3(4H)-yl)butanamide formate]	–
4 µg/mL (≈ 8.63 µM)	≤ 0.063 µg/mL	0.25 µg/mL (≈ 0.539 µM)	COc1ccc(-c2ccc3c(=O)n(CC[C@](C)(C(=O)NO)S(C)(=O)=O)cnc3c2)c(F)c1 (single isomer, unassigned) [Example 1]	–
4 µg/mL (≈ 8.71 µM)	4 µg/mL (≈ 8.71 µM)	4 µg/mL (≈ 8.71 µM)	C[C@@](CCn1cnc2cc(C#CC#CC3(O)COC3)ccc2c1=O)(C(=O)NO)S(C)(=O)=O [Example 4, (R)-N-hydroxy-4-(7-((3-hydroxyoxetan-3-yl)buta-1,3-diyn-1-yl)-4-oxoquinazolin-3(4H)-yl)-2-methyl-2-(methylsulfonyl)butanamide]	–
16 µg/mL (≈ 34.1 µM)	0.25 µg/mL (≈ 0.532 µM)	1 µg/mL (≈ 2.13 µM)	CC(CCn1cnc2cc(C#Cc3ccc(CO)cc3)ccc2c1=O)(C(=O)NO)S(C)(=O)=O (racemic) [RE10, (RS)-N-hydroxy-4-(7-((4-(hydroxymethyl)phenyl)ethynyl)-4-oxoquinazolin-3(4H)-yl)-2-methyl-2-(methylsulfonyl)butanamide]	–
1 µg/mL (≈ 2.19 µM)	0.125 µg/mL (≈ 0.273 µM)	0.5 µg/mL (≈ 1.09 µM)	C[C@@](CCn1cnc2cc(C#CC#C[C@H]3C[C@@H]3CO)ccc2c1=O)(C(=O)NO)S(C)(=O)=O [Example 3, (R)-N-hydroxy-4-(7-(((1S,2S)-2-(hydroxymethyl)cyclopropyl)buta-1,3-diyn-1-yl)-4-oxoquinazolin-3(4H)-yl)-2-methyl-2-(methylsulfonyl)butanamide]	–
16 µg/mL (≈ 34.5 µM)	0.25 µg/mL (≈ 0.539 µM)	1 µg/mL (≈ 2.16 µM)	COc1ccc(-c2ccc3c(=O)n(CCC(C)(C(=O)NO)S(C)(=O)=O)cnc3c2)cc1F (racemic) [RE5, (RS)-4-(7-(3-fluoro-4-methoxyphenyl)-4-oxoquinazolin-3(4H)-yl)-N-hydroxy-2-methyl-2-(methylsulfonyl)butanamide]	–
1 µg/mL (≈ 2.1 µM)	≤ 0.063 µg/mL	0.25 µg/mL (≈ 0.526 µM)	C[C@@](CCn1cnc2cc(C#CC#C[C@@H]3C[C@H]3CO)c(F)cc2c1=O)(C(=O)NO)S(C)(=O)=O [Example 11, (R)-4-(6-fluoro-7-(((1R,2R)-2-(hydroxymethyl)cyclopropyl)buta-1,3-diyn-1-yl)-4-oxoquinazolin-3(4H)-yl)-N-hydroxy-2-methyl-2-(methylsulfonyl)butanamide]	–
